Source: PMC4326127, “Collagen Inhibitory Peptide R1R2 Mediates Vascular Remodeling by Decreasing Inflammation and Smooth Muscle Cell Activation” (PLoS ONE, 2015)

Columns and labels:
U937 cells / HUVECs = experiment: Monocyte U937 adhesion to HUVECs; format: cell-based, human; settings: HUVECs treated with 10 ng/ml TNF-α; calcein-AM U937 5x10^5 cells/well, 30 minutes at 37°C; fluorescence 485/535; mean ± SD
Description: (§1) For in vivo experiments, the data are shown as the mean ± SEM. For in vitro experiments, the data shown are the means ± SD of a representative experiment, at least 3 independent experiments were performed. One-way ANOVA with post-hoc testing were used for data analysis with GraphPad Prism software (GraphPad, San Diego, CA). If normality test failed, nonparametric Kruskal-Wallis test followed by Dunn's post-hoc test were used. P > 0.05 was not considered significant.

[1] = tested on: left common carotid artery (flow-induced vascular remodeling); experiment: Morphometric analysis of carotid artery after complete common carotid ligation; format: in vivo, FVB/NJ (FVB) mice; settings: for EEL Area / Intima+Media / Intima/Media Ratio / Lumen: 20 μM peptide in 50 μl F-127 pluronic gel, mean ± SEM
From the text: (§2) Animals were anesthetized with isoflurane inhalation. The left common carotid artery was exposed, dissected free from the surrounding connective tissue and completely ligated with 6-0 silk suture just proximal to the carotid bifurcation. […] 4–10 mice were included in each experimental group.
5 groups of animals were processed for morphometric analysis. Mice were fixed with 10% formalin 7 or 14 days after the surgery. The common carotid arteries were harvested and embedded in paraffin.
as §1

collagen-FN binding = settings: in vitro; ref [29],[30],[33]; cited from earlier work
From the text: (§3) In order to assess whether inhibiting collagen type I deposition reduces vascular remodeling in an in vivo mouse model, we used the collagen inhibitory peptide R1R2 for this study. The R1R2 peptide is derived from two repeat domains of the bacterial adhesin SFS, and is highly homologous to collagen. […] It is likely that R1R2 blocks collagen type I fibril formation around cells by binding to the collagen-binding domain of FN. To characterize the effects of our synth ...

smooth muscle cell = settings: in vitro; ref [29],[30],[33]; cited from earlier work
From the text: as §3

collagen type I [2] = settings: in vitro; ref [29],[30],[33]; cited from earlier work
From the text: as §3

CD45 (+) leukocytes = experiment: CD45 IHC, leukocyte infiltration in carotid intima-media; format: in vivo, FVB/NJ (FVB) mice
Description: as §2
(§4) Paraffin sections selected from the first mm of the carotid artery in each group were used for immunohistochemistry (IHC). […] Sections were then incubated with appropriate biotinylated secondary antibodies followed by avidin-biotin immunoperoxidase system (Vector Laboratories, Burlingame, CA). Liquid DAB Substrate Chromogen system (Dako, Carpinteria, CA) was used for detection.
(§5) Quantitative IHC analysis was performed on digital images captured with a 20x objective by using Image-Pro Plus software. Data from 3–6 mice for each group were averaged, and the average values ± SEM were shown. For FN, collagen type I, SM-MHC and SM α-actin, color digital images were transformed into gray scale, and the sum of the optical densities from the intima+media area in each section was determined. […] The percent of positive cells is reported as the proliferation index. […] The intima+media region was traced manually. The percent of positively stained area in intima+media to the total traced area was assessed.
as §1

collagen type I [3] = experiment: IHC for collagen type I in ligated carotid artery; format: in vivo, FVB/NJ (FVB) mice; settings: 7 days after surgery; 20 μM peptide in pluronic gel; mean ± SEM; R1R2 n = 6, scrambled n = 6
Description: as §2, §4, §5
(§6) For in vivo experiments, the data are shown as the mean ± SEM. […]

A7r5 SMCs = experiment: SMC migration, scrape wound assay; format: cell-based
Description: Human umbilical vein endothelial cells (HUVECs) and A7r5 SMCs were provided by Resource Center (SB3, NSC 100-2325-B-080-001), National Research Program for Biopharmaceuticals (Hsinchu, Taiwan). HUVECs were maintained in M199 (Life Technologies, Carlsbad, CA) with 25U/ml heparin (Sigma-Aldrich, St. Louis, MO), 10% fetal bovine serum (FBS) and endothelial cell growth supplement (ECGS; Millipore, Billerica, MA). A7r5 SMCs were grown in Dulbecco’s Modified Eagle’s Medium (DMEM) containing high glucose, supplemented with 10% fetal bovine serum. Human U937 cells were grown in RPMI1640 with 10% FBS.
A scrape wound assay was used to assess the effect of R1R2 and scrambled peptides on SMC migration as described. Briefly, A7r5 SMCs were grown until 90% confluent, followed by serum starvation and treatment with R1R2 and scrambled peptides for 36 hours. Several scrape wounds were then performed across the dish with a sterile yellow pipet tip. We initiated the experiment with treatment of cells with 10 ng/ml PDGF-BB. Photographs of the wound area were taken immediately after PDGF-BB addition (0 hour) and 30 hours postwounding with an Olympus CKX-41 microscope connected to a camera. At least three photographs were taken per group at each time point. Wound areas were determined using Image-Pro Software (Media Cybernetics, MD). Measurement of migration was determined by subtracting the cell-free area 30 hours after PDGF-BB addition from the cell-free area in the beginning of scrape wounds.
For in vivo experiments, the data are shown as the mean ± SEM. For in vitro experiments, the data shown are the means ± SD of a representative experiment, at least 3 independent experiments were performed. […]
Fig 6 R1R2 reduces SMC proliferation and migration. […] Cells were counted at the indicated time in the figure (n = 5). […] (C) Quantitation of SMC migration in the scratch wound healing assay was performed by subtracting the cell-free area 30 hours after PDGF-BB stimulation from the cell-free area in the beginning (n = 5). * indicates p<0.05 and ** p< 0.01.

ICAM-1 = ICAM-1 IHC in ligated carotid artery; format: in vivo, FVB/NJ (FVB) mice; settings: 7 days after ligation; percent of positively stained area; mean ± SEM; R1R2 n = 7, control peptide n = 8
Description: as §2, §4, §5, §6

collagen = experiment: Hydroxyproline assay of carotid collagen content; format: in vivo, FVB/NJ (FVB) mice; settings: 14 days post-ligation; three carotid arteries pooled per group; colorimetric chloramine T; mean ± SEM, n = 3
Description: as §2
After reconstituting with water, samples were measured using a colorimetric chloramine T assay. Three independent experiments were performed for statistical analysis.
as §1

[4] = 7 day after ligation, periadventitial, scrambled n = 4, R1R2 n = 10
[5] = 14 day after ligation, periadventitial, scrambled n = 4, R1R2 n = 9

## GLNGENQKEPEQGERGEAGPPLSGLSGNNQGRPSLPGLNGENQKEPEQGERGEAGPP [R1R2]
U937 cells / HUVECs
  U937 adhesion to HUVECs: 197697 ± 34184 cells per cm^2
[1]; 7 and 14 days post-ligation, 20 μM peptide in pluronic gel, periadventitial, in words
  effect on neointimal formation: dramatic attenuation in injury-induced neointimal formation
[1]; [4]
  EEL Area: 64905 ± 3680 (n = 10) μm^2
  Intima+Media: 29208 ± 884 (n = 10) μm^2
  Intima/Media Ratio: 0.0424 ± 0.0133 (n = 10)
  Lumen: 32038 ± 2870 (n = 10) μm^2
[1]; 7 days and 14 days after ligation, compared to the control mice, in words
  effect on intima-media area, EEL area and intimal/medial ratio: significantly reduced intima-media areas (Intima + Media), EEL area and intimal/medial ratios
[1]; [5]
  EEL Area: 51482 ± 4981 (n = 9) μm^2
  Intima+Media: 25706 ± 1220 (n = 9) μm^2
  Intima/Media Ratio: 0.0709 ± 0.0231 (n = 9)
  Lumen: 25776 ± 4286 (n = 9) μm^2
[1]; day 7 and 14 after injury, compared to the controls, in words
  effect on lumenal area: no significant decrease in the lumenal area
collagen-FN binding
  effect on collagen-FN binding: known to inhibit collagen-FN binding
Smooth muscle cell
  effect on smooth muscle cell migration: known to inhibit collagen-FN binding, collagen type I deposition, and smooth muscle cell migration in vitro
Collagen type I [2]
  effect on collagen type I deposition: known to inhibit collagen-FN binding, collagen type I deposition
CD45 (+) leukocytes; 7 days after ligation, percent of positively stained area, mean ± SEM, R1R2 n = 5, scrambled n = 6
  CD45 (+) area in intima-media: 0.094 ± 0.035%
CD45 (+) leukocytes; carotid artery, periadventitial pluronic gel
  reduction of inflammatory cell infiltration into the vessel: ~78%
Collagen type I [3]
  collagen type I IHC intensity in intima-media area: 0.117 ± 0.007
A7r5 SMCs; 30 hours post PDGF-stimulation, versus scrambled peptide, in words
  effect on SMC migration (wound healing images): cells migrated more slowly
A7r5 SMCs; A7r5 SMCs, 36 hours peptide pretreatment, 10 ng/ml PDGF-BB, 30 hours, mean ± SD, n = 3
  SMC migration (cell-free area at 0 h minus cell-free area at 30 hours): 130149 ± 53295
ICAM-1
  ICAM-1 (+) area in intima-media: 11.58 ± 2.387%
collagen
  collagen content, hydroxyproline assay: 1.522 ± 0.077
